Test results reported in patent publication US20100298141A1, “SUBSTITUTED PYRIDINE N-OXIDE HERBICIDES” (E. I. DU PONT DE NEMOURS AND COMPANY, priority 2007, published 2010).

Experiments:
annual bluegrass = assay: Test F preemergence test; type: in vivo, Poa annua; settings: scale 0 to 100
Source text: (§1) Seeds of plant species selected from bermudagrass (Cynodon dactylon), Surinam grass (Brachiaria decumbens), large crabgrass (Digitaria sanguinalis), green foxtail (Setaria viridis), goosegrass (Eleusine indica), johnsongrass (Sorghum halepense), kochia (Kochia scoparia), pitted morningglory (Ipomoea lacunosa), purple nutsedge (Cyperus rotundus), common ragweed (Ambrosia elation), mustard (Brassica nigra), guineagrass (Panicum maximum), […] (Paspalum dilatatum), barnyardgrass (Echinochloa crus-galli), southern sandbur (Cenchrus echinatus), common sowthistle (Sonchus oleraceous), prickly […] spinosa), Italian ryegrass (Lolium multiflorum), common purslane (Portulaca oleracea), broadleaf signalgrass (Brachiaria platyphylla), common groundsel (Senecio vulgaris), common chickweed (Stellaria media), Virginia dayflower (Commelina virginica), annual bluegrass (Poa annua), naked crabgrass (Digitaria nuda), […] cochinchinensis), quackgrass (Elytrigia repens), Canada horseweed (Conyza canadensis), field bindweed (Convolvulus arvensis), […] (Bidens bipinnata), common mallow (Malva sylvestris), Russian thistle (Salsola kali), and sugarcane (Saccharum officinarum) were planted and treated preemergence with test chemicals formulated in a non-phytotoxic solvent mixture which included a surfactant. At a different time, sugarcane was treated with postemergence applications of some of the test chemicals formulated in the same manner. Plants were approximately 3- to 4-leaf stage for the postemergence treatments. Treated plants and controls were maintained in a greenhouse for 14 to 21 days, after which time all species were compared to controls and visually evaluated. […] A dash (-) response means no test result.

broadleaf signalgrass = assay: Test F preemergence test; type: in vivo, Brachiaria platyphylla; settings: scale 0 to 100
Source text: as §1

rice = assay: Test C flooded paddy test; type: in vivo, Oryza sativa; settings: Flood
Outline: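 Ratings were visual and made relative to untreated controls after 13 to 15 greenhouse days.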

bermudagrass = assay: Test F preemergence test; type: in vivo, Cynodon dactylon; settings: scale 0 to 100
Source text: as §1

common ragweed = assay: Test F preemergence test; type: in vivo, Ambrosia elation; settings: scale 0 to 100
Source text: as §1

kochia = assay: Test F preemergence test; type: in vivo, Kochia scoparia; settings: scale 0 to 100
Source text: as §1

large crabgrass = assay: Test F preemergence test; type: in vivo, Digitaria sanguinalis; settings: scale 0 to 100
Source text: as §1

johnsongrass = assay: Test F preemergence test; type: in vivo, Sorghum halepense; settings: scale 0 to 100
Source text: as §1

Surinam grass = assay: Test F preemergence test; type: in vivo, Brachiaria decumbens; settings: scale 0 to 100; for Plant response rating, Surinam Grass: Preemergence
Source text: as §1

goosegrass = assay: Test F preemergence test; type: in vivo, Eleusine indica; settings: scale 0 to 100
Source text: as §1

morningglory = assay: Test C pre-/postemergence test; type: in vivo, Ipomoea coccinea
Outline: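 Compounds in a non-phytotoxic solvent with surfactant applied preemergence to seeded pots and, at the same time, postemergence to plants 2–18 cm tall (1- to 4-leaf stage). Paddy tests: pots flooded to 3 cm, compound applied into the water, depth held throughout.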

purple nutsedge = assay: Test F preemergence test; type: in vivo, Cyperus rotundus; settings: scale 0 to 100
Source text: as §1

Virginia dayflower = assay: Test F preemergence test; type: in vivo, Commelina virginica; settings: scale 0 to 100
Source text: as §1

naked crabgrass = assay: Test F preemergence test; type: in vivo, Digitaria nuda; settings: scale 0 to 100
Source text: as §1

Italian ryegrass = assay: Test F preemergence test; type: in vivo, Lolium multiflorum; settings: scale 0 to 100
Source text: as §1

`Cn1nc(C(F)(F)C(F)(F)F)c(C[S+]([O-])c2cccc[n+]2[O-])c1OCC(F)(F)F` (stereo not drawn) [Compound 79] was tested, and the “Plant response rating, Bluegrass” value (annual bluegrass; 16 g ai/ha, preemergence) was 0, the “Bluegrass plant response rating” value (annual bluegrass; 62 g ai/ha, Preemergence) was 90 and the “Bluegrass plant response rating” value (annual bluegrass; 125 g ai/ha, preemergence) was 100. For the same compound, the “Plant response rating, Bluegrass” value (annual bluegrass; Preemergence, 31 g ai/ha) was 0, the “Plant response rating, Signalgrass” value (broadleaf signalgrass; 16 g ai/ha, preemergence) was 0 and the “Signalgrass plant response rating” value (broadleaf signalgrass; 125 g ai/ha, preemergence) was 100. For the same compound, the “Plant response rating, Signalgrass” value (broadleaf signalgrass; Preemergence, 62 g ai/ha) was 30, the “Plant response rating, Signalgrass” value (broadleaf signalgrass; Preemergence, 31 g ai/ha) was 0 and the “Plant response rating, Rice” value (rice; 62 g ai/ha, scale 0 to 100 (0 no effect, 100 complete control)) was 70. The “Plant response rating, Rice” value (rice; 250 g ai/ha, scale 0 to 100, 0 no effect, 100 complete control, 13 to 15 days) was 80, the “Plant response rating, Bermudagrass” value (bermudagrass; 16 g ai/ha, preemergence) was 10 and the “Bermudagrass plant response rating” value (bermudagrass; 62 g ai/ha, Preemergence) was 100. The “Bermudagrass plant response rating” value (bermudagrass; 125 g ai/ha, preemergence) was 100, the “Plant response rating, Bermudagrass” value (bermudagrass; Preemergence, 31 g ai/ha) was 65 and the “Plant response rating, Ragweed” value (common ragweed; 16 g ai/ha, preemergence) was 95. The “Ragweed plant response rating” value (common ragweed; 125 g ai/ha, preemergence) was 100, the “Plant response rating, Ragweed” value (common ragweed; Preemergence, 62 g ai/ha) was 100 and the “Plant response rating, Ragweed” value (common ragweed; Preemergence, 31 g ai/ha) was 100. For the same compound, the “Plant response rating, Kochia” value (kochia; 16 g ai/ha, preemergence) was 50, the “Kochia plant response rating” value (kochia; 62 g ai/ha, Preemergence) was 100 and the “Kochia plant response rating” value (kochia; 125 g ai/ha, preemergence) was 100. The “Plant response rating, Kochia” value (kochia; Preemergence, 31 g ai/ha) was 100, the “Plant response rating, Crabgrass, Large” value (large crabgrass; 16 g ai/ha, preemergence) was 0 and the “Crabgrass, Large plant response rating” value (large crabgrass; 62 g ai/ha, Preemergence) was 80. The “Crabgrass, Large plant response rating” value (large crabgrass; 125 g ai/ha, preemergence) was 100, the “Plant response rating, Crabgrass, Large” value (large crabgrass; Preemergence, 31 g ai/ha) was 20 and the “Plant response rating, Johnsongrass” value (johnsongrass; 16 g ai/ha, preemergence) was 0. The “Johnsongrass plant response rating” value (johnsongrass; 62 g ai/ha, Preemergence) was 90, the “Johnsongrass plant response rating” value (johnsongrass; 125 g ai/ha, preemergence) was 100 and the “Plant response rating, Johnsongrass” value (johnsongrass; Preemergence, 31 g ai/ha) was 50. For the same compound, the “Surinam Grass plant response rating” value (Surinam grass; 125 g ai/ha, preemergence) was 100, the “Plant response rating, Surinam Grass” value (Surinam grass; 62 g ai/ha) was 100 and the “Plant response rating, Surinam Grass” value (Surinam grass; 31 g ai/ha) was 30. The “Plant response rating, Goosegrass” value (goosegrass; 16 g ai/ha, preemergence) was 20, the “Goosegrass plant response rating” value (goosegrass; 62 g ai/ha, Preemergence) was 98 and the “Goosegrass plant response rating” value (goosegrass; 125 g ai/ha, preemergence) was 100. For the same compound, the “Plant response rating, Goosegrass” value (goosegrass; Preemergence, 31 g ai/ha) was 75, the “Morningglory plant response rating” value (morningglory; 62 g ai/ha, Preemergence, scale 0 to 100) was 100 and the “Morningglory plant response rating” value (morningglory; 125 g ai/ha, preemergence, scale 0 (no effect) to 100 (complete control)) was 100. For the same compound, the “Plant response rating (0 to 100), Morningglory” value (morningglory; Postemergence, 31 g ai/ha) was 0, the “Plant response rating (0 to 100), Morningglory” value (morningglory; Postemergence, 62 g ai/ha) was 0 and the “Plant response rating, Morningglory” value (morningglory; Postemergence, 125 g ai/ha, scale 0 to 100, 0 no effect, 100 complete control) was 0. The “Plant response rating, Morningglory” value (morningglory; Postemergence, 250 g ai/ha, scale 0 to 100, 0 no effect, 100 complete control) was 0, the “Plant response rating, Morningglory” value (morningglory; Preemergence, 31 g ai/ha, scale 0 to 100 (0 no effect, 100 complete control)) was 60 and the “Morningglory plant response rating” value (morningglory; preemergence, 250 g ai/ha, scale 0 (no effect) to 100 (complete control)) was 100. The “Plant response rating, Purple Nutsedge” value (purple nutsedge; 16 g ai/ha, preemergence) was 0, the “Purple Nutsedge plant response rating” value (purple nutsedge; 62 g ai/ha, Preemergence) was 0 and the “Purple Nutsedge plant response rating” value (purple nutsedge; 125 g ai/ha, preemergence) was 60. For the same compound, the “Plant response rating, Purple Nutsedge” value (purple nutsedge; Preemergence, 31 g ai/ha) was 0, the “Dayflower plant response rating” value (Virginia dayflower; 62 g ai/ha, Preemergence) was 50 and the “Dayflower plant response rating” value (Virginia dayflower; 125 g ai/ha, preemergence) was 100. For the same compound, the “Plant response rating, Dayflower” value (Virginia dayflower; Preemergence, 31 g ai/ha) was 20, the “Plant response rating, Crabgrass, Naked” value (naked crabgrass; 16 g ai/ha, preemergence) was 0 and the “Crabgrass, Naked plant response rating” value (naked crabgrass; 62 g ai/ha, Preemergence) was 100. The “Crabgrass, Naked plant response rating” value (naked crabgrass; 125 g ai/ha, preemergence) was 100, the “Plant response rating, Crabgrass, Naked” value (naked crabgrass; Preemergence, 31 g ai/ha) was 40 and the “Plant response rating, Ryegrass, Italian” value (Italian ryegrass; 16 g ai/ha, preemergence) was 0. For the same compound, the “Ryegrass, Italian plant response rating” value (Italian ryegrass; 125 g ai/ha, preemergence) was 100, the “Plant response rating, Ryegrass, Italian” value (Italian ryegrass; Preemergence, 62 g ai/ha) was 100 and the “Plant response rating, Ryegrass, Italian” value (Italian ryegrass; Preemergence, 31 g ai/ha) was 65.
